The record followed here is ChEMBL document CHEMBL1121424, “Orally active cephalosporins and penicillins” (J Med Chem, 1980).

Values after ≈ are worked out from the molar mass of the structure shown. Where only a bound is given, the exact number is not on record here.

A short description of data set [1]: tested for the peak time in mice following 6.9 mg/kg, oral (administered as the hydrochloride salt dissolved in H2O). Conditions: mouse, in vivo, read-out: Peak time (converted). Format: ADME, organism-based. Also noted: dose 6.9 mg/kg, route oral.
Data set [2] has as its system Staphylococcus aureus. In words: Tested for the antimicrobial activity against Staphylococcus aureus, benzyl-penicillin sensitive in mice, perorally. Format: functional. Conditions: po.
Data set [3] deals with Staphylococcus aureus. In words: Tested for inhibition of visible growth of Staphylococcus aureus, benzyl-penicillin sensitive. Format: functional.
The nature of data set [4]: (§1) Tested for the antimicrobial activity against Salmonella schottmuelleri in mice. It is filed as functional.
Data set [5] relates to Escherichia coli. In words: Tested for the antimicrobial activity against Escherichia coli in mice. It is filed as functional.
Data set [6] deals with Streptococcus pneumoniae. In words: Tested for inhibition of visible growth of Streptococcus pneumoniae. Format: functional.
Data set [7] is described as follows: Tested for the peak time in mice following 11.8 mg/kg, oral (administered as the sodium salt dissolved in H2O). Format: ADME, organism-based. Also noted: dose 11.8 mg/kg, route oral. To be noted: mouse, in vivo, read-out: Peak time (converted).
The subject of data set [8] is Staphylococcus aureus. Description: Tested for inhibition of visible growth of Staphylococcus aureus. Format: functional.
The subject of data set [9] is Streptococcus pyogenes. In words: (§2) Tested for the antimicrobial activity against Streptococcus pyogenes in mice. It is filed as functional.
For data set [10], the system named is Staphylococcus aureus. Description: Tested for the antimicrobial activity against Staphylococcus aureus. Format: functional.
The next data set concerns Enterococcus faecalis. Description: Tested for inhibition of visible growth of Streptococcus faecalis. Format: functional.
Data set [11] relates to Streptococcus pyogenes. The data set is described as §2. It is filed as functional. This is another data set of the same source.
The test system of data set [12] is Escherichia coli. Description: Tested for inhibition of visible growth of Escherichia coli. Format: functional.
For data set [13], the system named is Escherichia coli. In words: Tested for the antimicrobial activity against Escherichia coli in mice perorally. It is filed as functional. Conditions: po.
The next data set relates to Klebsiella pneumoniae. Description: Tested for inhibition of visible growth of Klebsiella pneumoniae. Format: functional.
The test system of data set [14] is Streptococcus pneumoniae. In words: (§3) Tested for the antimicrobial activity against Streptococcus pneumoniae in mice. It is filed as functional.
Data set [15] has as its system Streptococcus pneumoniae. The data set is described as §3. Format: functional. The source holds these as a separate data set.
A further data set has as its system Enterobacter cloacae. In words: Tested for inhibition of visible growth of Enterobacter cloacae. Format: functional.
Data set [16] has as its system Streptococcus pyogenes. In words: Tested for inhibition of visible growth of Streptococcus pyogenes. It is filed as functional.
Data set [17] is described as follows: as §1. Format: functional. This is another data set of the same source.
A short description of data set [18]: Tested for inhibition of visible growth of Salmonella schottmuelleri. Format: functional.
The test system of a further data set is Klebsiella aerogenes. Description: Tested for inhibition of visible growth of Enterobacter aerogenes. Format: functional.
Another data set concerns Proteus mirabilis. In words: Tested for inhibition of visible growth of Proteus mirabilis. Format: functional.
Data set [19] is described as follows: Tested for the peak time in mice following 40 mg/kg oral dose of cephalosporin. It is filed as ADME, organism-based. Details: dose 40 mg/kg, route oral. Conditions: mouse, in vivo, read-out: Peak time (converted).
Data set [20] is filed under the species Mus musculus. Description: Tested for the antimicrobial activity against Staphylococcus aureus, benzyl-penicillin resistant in mice, perorally. Format: functional. To be noted: po.
Data set [21] is described as follows: Tested for the peak time in mice following 39 mg/kg oral dose of cephalosporin. Conditions: mouse, in vivo, read-out: Peak time (converted). It is filed as ADME, organism-based. Details: dose 39 mg/kg, route oral.
Data set [22] concerns Mus musculus. Description: Tested for the antimicrobial activity against […], benzyl-penicillin sensitive in mice, subcutaneously. Conditions: sc. Format: functional.
Data set [23] is filed under the species Mus musculus. Description: Tested for the antimicrobial activity against Staphylococcus aureus, benzyl-penicillin sensitive in mice, perorally. Conditions: po.

A word on the ED50: it is the dose that gives a 50% effect, or the effect in half of the subjects. Read a low ED50 as greater potency. The MIC is the lowest concentration that inhibits growth of the organism.

With `Cc1nnc(SCC2=C(C(=O)O)N3C(=O)C(NC(=O)[C@H](N)c4ccc5c(c4)OCO5)C3SC2)s1` (stereo not given in full), the Tmax in [1] and in [7] was 30 min throughout. The ED50 came to 0.8 mg/kg with Staphylococcus aureus [2]; 8 mg/kg in [4]; 10.6 mg/kg with Escherichia coli [5]; 0.84 mg/kg in the data set on Streptococcus pyogenes [9]; 0.29 mg/kg in the data set with Staphylococcus aureus [10]; 0.23 mg/kg in the data set on Streptococcus pyogenes [11]. Also, the ED50 with Escherichia coli [13] was found to be 33.9 mg/kg; with Streptococcus pneumoniae [14], 1.3 mg/kg; with Streptococcus pneumoniae [15], 0.79 mg/kg; in data set [17], 40 mg/kg. The MIC in the data set on Staphylococcus aureus [3] was 0.2 mg/L (≈ 0.383 µM); in the data set with Streptococcus pneumoniae [6], 0.1 mg/L (≈ 0.192 µM); against Staphylococcus aureus [8], 3.1 mg/L (≈ 5.94 µM); against Enterococcus faecalis, 50 mg/L (≈ 95.9 µM); with Escherichia coli [12], 12.5 mg/L (≈ 24 µM); with Klebsiella pneumoniae, 6.2 mg/L (≈ 11.9 µM). Further, the MIC in the data set with Enterobacter cloacae is 25 mg/L (≈ 47.9 µM); against Streptococcus pyogenes [16], 0.1 mg/L (≈ 0.192 µM); in data set [18], 1.6 mg/L (≈ 3.07 µM); against Klebsiella aerogenes, 25 mg/L (≈ 47.9 µM); against Proteus mirabilis, over 100 mg/L.
`CC1=C(C(=O)O)N2C(=O)C(NC(=O)[C@H](N)c3ccc4c(c3)OCO4)C2SC1` (stereo not given in full): the ED50 in the data set with Staphylococcus aureus [2] worked out at 0.61 mg/kg; in data set [4], 33 mg/kg; with Escherichia coli [5], 15 mg/kg; in the data set on Streptococcus pyogenes [9], 1 mg/kg; in the data set with Staphylococcus aureus [10], 0.45 mg/kg; in the data set with Streptococcus pyogenes [11] it was 1.4 mg/kg. In addition, the ED50 in the data set with Escherichia coli [13] was found to be 28 mg/kg; in the data set listed under Mus musculus [20] it was 3.1 mg/kg; in the data set on Streptococcus pneumoniae [14] it was 19 mg/kg; in the data set on Streptococcus pneumoniae [15], 26 mg/kg; in [17], 37 mg/kg. In addition, the minimal inhibitory concentration (MIC) in the data set on Staphylococcus aureus [3] is 0.4 mg/L (≈ 1.02 µM); in the data set on Streptococcus pneumoniae [6], 1.6 mg/L (≈ 4.09 µM); with Staphylococcus aureus [8] it was 3.1 mg/L (≈ 7.92 µM); in the data set with Enterococcus faecalis, over 100 mg/L; with Escherichia coli [12] it was 25 mg/L (≈ 63.9 µM); in the data set on Klebsiella pneumoniae, 25 mg/L (≈ 63.9 µM). In addition, the MIC was over 100 mg/L against Enterobacter cloacae; 0.8 mg/L (≈ 2.04 µM) with Streptococcus pyogenes [16]; 12.5 mg/L (≈ 31.9 µM) in [18]; over 100 mg/L in the data set on Klebsiella aerogenes; over 100 mg/L in the data set on Proteus mirabilis. The Tmax in data set [19] was 10 min.
In the case of `CC1=C(C(=O)O)N2C(=O)C(NC(=O)[C@H](N)c3ccc4c(c3)CCO4)C2SC1` (stereo not given in full), in data set [21], the Tmax is 10 min. Besides, the median effective dose (ED50) in the data set on Staphylococcus aureus [2] stood at 0.67 mg/kg; in the data set on Streptococcus pyogenes [9] it was 0.37 mg/kg; in the data set on Staphylococcus aureus [10] it was 0.63 mg/kg; in the data set on Streptococcus pyogenes [11] it was 0.34 mg/kg; in the data set listed under Mus musculus [20], 7 mg/kg; with Streptococcus pneumoniae [14], 8.6 mg/kg. Moreover, in the data set on Streptococcus pneumoniae [15], the 50% effect level (ED50) was put at a dose of 10 mg/kg. For the same compound, the MIC in the data set with Staphylococcus aureus [3] is 0.4 mg/L (≈ 1.03 µM); against Streptococcus pneumoniae [6], 0.4 mg/L (≈ 1.03 µM); against Staphylococcus aureus [8], 1.6 mg/L (≈ 4.11 µM); in the data set with Enterococcus faecalis it was over 100 mg/L; in the data set with Escherichia coli [12] it was 50 mg/L (≈ 128 µM); against Klebsiella pneumoniae it was 25 mg/L (≈ 64.2 µM). In addition, the MIC with Enterobacter cloacae is over 100 mg/L; in the data set on Streptococcus pyogenes [16], 0.2 mg/L (≈ 0.514 µM); in [18], 12.5 mg/L (≈ 32.1 µM); against Klebsiella aerogenes it was over 100 mg/L; with Proteus mirabilis it was over 100 mg/L.
Regarding `Cn1nnnc1SCC1=C(C(=O)O)N2C(=O)C(NC(=O)[C@H](N)c3ccc4c(c3)OCO4)C2SC1` (stereo not given in full), the minimum inhibitory concentration (MIC) in the data set with Staphylococcus aureus [3] was 0.2 mg/L (≈ 0.396 µM); in the data set on Streptococcus pneumoniae [6], 0.1 mg/L (≈ 0.198 µM); with Staphylococcus aureus [8], 1.6 mg/L (≈ 3.16 µM); in the data set on Enterococcus faecalis it was 50 mg/L (≈ 98.9 µM); in the data set with Escherichia coli [12], 3.1 mg/L (≈ 6.13 µM); against Klebsiella pneumoniae, 3.1 mg/L (≈ 6.13 µM). Also, the MIC in the data set on Enterobacter cloacae is 6.2 mg/L (≈ 12.3 µM); with Streptococcus pyogenes [16] it was 0.05 mg/L (≈ 0.0989 µM); in [18] it was 0.8 mg/L (≈ 1.58 µM); against Klebsiella aerogenes it was 3.1 mg/L (≈ 6.13 µM); against Proteus mirabilis it was 25 mg/L (≈ 49.5 µM). Moreover, the ED50 is under 3.1 mg/kg in data set [4]; 2.1 mg/kg with Escherichia coli [5]; 0.37 mg/kg with Streptococcus pyogenes [9]; 0.14 mg/kg with Streptococcus pyogenes [11]; 0.31 mg/kg in the data set on Mus musculus [22]; over 2 mg/kg in the data set filed under Mus musculus [23]. Also, the ED50 in the data set on Streptococcus pneumoniae [14] is over 10 mg/kg; with Streptococcus pneumoniae [15] it was 0.74 mg/kg; in data set [17], 16 mg/kg.
